Results taken from patent publication US20120195837A1, “TIN(II)-2-HYDROXYCARBOXYLATES” (HONEYWELL INTERNATIONAL INC., priority 2011, published 2012).

What was measured:
[1] = Oral care application of formulated dentifrice or oral wash; assay type: in vivo; settings: formulated as oral dentifrice or oral wash
Description: A sample of tin(II) L-lactate (Example 2) is formulated as an oral dentifrice or oral wash, using additives and methods as known in the art.

[2] = Physical properties of the solid (hygroscopicity, flow); assay type: physicochemical; settings: versus stannous chloride dihydrate
Description: Thus, tin(II) lactate is observed to be a non-hygroscopic, and therefore an easily handlable free-flowing powder. In addition, tin(II) lactate is observed to be non-corrosive.
In addition, tin(II) lactate is observed to be non-corrosive toward standard industrial equipment.

| Structure (SMILES) | retention of Sn(II) ion on oral surfaces ([1]; applied for about 5 to about 10 minutes) | plaque formation and/or dental caries ([1]; compared with a control group which lacks the Sn(II) application) | hygroscopicity / powder behaviour [2] |
| --- | --- | --- | --- |
| C[C@H](O)C(=O)[O-].C[C@H](O)C(=O)[O-].[Sn+2] [tin(II) L-lactate, Tin(II) L-lactate] | successfully results in retention of Sn(II) ion on oral surfaces | reduces plaque formation and/or dental caries |  |
| CC(O)C(=O)[O-].CC(O)C(=O)[O-].[Sn+2] (stereo not drawn) [tin(II) lactate, Tin(II) Lactate] |  |  | non-hygroscopic, free-flowing powder |
